From ChEMBL document CHEMBL4680211, “Synthesis and structure-activity relationship study of water-soluble carbazole sulfonamide derivatives as new anticancer agents” (Eur J Med Chem, 2020) come the findings set out here.

pIC50: −log10 of the molar value.

Data set [1] concerns HepG2. As to the kind of experiment: Antiproliferative activity against human HepG2 cells measured after 48 hrs by SRB assay. As to conditions: Homo sapiens, HepG2, 48 h. The class given is functional, cell-based. For orientation: The SRB assay estimates cell density from bound dye.
Data set [2] in a line: Acute toxicity in Kunming mouse assessed as survival at 25 mg/kg, iv measured for 7 days relative to control. The class given is organism-based. As to conditions: in vivo, time 7 day.
Data set [3] is described as follows: Toxicity in human HepG2 cells xenografted BALB/c nude mouse assessed as change in tumor weight at 10 mg/kg, iv qod for 14 to 29 days (reference value: 4.52 g). The class given is organism-based. As to conditions: in vivo, time 14-29 day.
Data set [4] in a line: Acute toxicity in iv dosed Kunming mouse measured for 7 days. It is filed as organism-based. As to conditions: in vivo, time 7 day.
Data set [5] in a line: Acute toxicity in Kunming mouse assessed as survival at 100 mg/kg, iv measured for 7 days relative to control. It is filed as organism-based. The conditions noted are these: in vivo, time 7 day.
A short description of data set [6]: Acute toxicity in Kunming mouse assessed as survival at 50 mg/kg, iv measured for 7 days relative to control. The conditions noted are these: in vivo, time 7 day. It is filed as organism-based.
Data set [7] has as its system HepG2. Description: Antitumor activity against human HepG2 cells xenografted in BALB/c nude mouse assessed as tumor growth inhibition at 10 mg/kg, iv qod for 14 to 29 days relative to control. The conditions noted are these: time 14-29 day, read-out: TGI. It is filed as functional. (In general: In xenograft studies the graft and the host belong to different species.)

The subject of data set [8] is Bel-7402. As to the kind of experiment: Antiproliferative activity against human Bel-7402 cells measured after 48 hrs by SRB assay. It is filed as functional, cell-based. The conditions noted are these: Homo sapiens, Bel-7402, 48 h.
In data set [9] the test system is HepG2. Description: Antitumor activity against human HepG2 cells xenografted in BALB/c nude mouse assessed as tumor volume at 10 mg/kg, iv qod for 14 to 29 days measured on day 1 (reference value: 154.04 +/- 3120). It is filed as functional. As to conditions: time 14-29 day.
Data set [10] can be described thus: Acute toxicity in Kunming mouse assessed as survival at 200 mg/kg, iv measured for 7 days relative to control. The class given is organism-based. As to conditions: in vivo, time 7 day.
Data set [11] has as its system MCF7. As to the kind of experiment: Antiproliferative activity against human MCF7 cells measured after 48 hrs by SRB assay. The class given is functional, cell-based. As to conditions: Homo sapiens, MCF7, 48 h.
Data set [12] has as its system HepG2. Description: Antitumor activity against human HepG2 cells xenografted in BALB/c nude mouse assessed as tumor volume at 10 mg/kg, iv qod for 14 to 29 days measured on day 29 (reference value: 2,838.93 +/- 737.40). It is filed as functional. The conditions noted are these: time 14-29 day.
Data set [13] is described as follows: Volume of distribution at steady state in Sprague-Dawley rat at 2.5 mg/kg, iv. The class given is ADME, organism-based. The conditions noted are these: in vivo, read-out: Vdss.
Data set [14] in a line: Acute toxicity in ip dosed Kunming mouse measured for 7 days. It is filed as organism-based. As to conditions: in vivo, time 7 day.
The nature of data set [15]: Elimination half life in Sprague-Dawley rat at 2.5 mg/kg, iv. It is filed as ADME, organism-based. The conditions noted are these: in vivo, read-out: beta t1/2 (converted).
Data set [16] is described as follows: AUC (0 to last) in Sprague-Dawley rat at 2.5 mg/kg, iv. The class given is ADME, organism-based. On the set-up: time 0 - last, route intravenous, dose 2.5 mg/kg. As to conditions: in vivo.
Data set [17] in a line: MRT (0 to last) in Sprague-Dawley rat at 2.5 mg/kg, iv. It is filed as ADME, organism-based. The conditions noted are these: in vivo.
Data set [18] relates to HepG2. Description: Antitumor activity against human HepG2 cells xenografted in BALB/c nude mouse assessed as tumor growth inhibition at 25 mg/kg, ip qod for 29 days by caliper method relative to control. It is filed as functional. The conditions noted are these: 696 h, time 29 day, read-out: TGI.
Data set [19] concerns HepG2. As to the kind of experiment: Antitumor activity against human HepG2 cells xenografted in iv dosed BALB/c nude mouse assessed as tumor growth inhibition administered every other day for 14 to 29 days. The class given is functional, organism-based. As to conditions: time 14-29 day.
The nature of data set [20]: Aqueous solubility of compound in water at pH 7.4 incubated at 20 degC by HPLC-UV analysis. It is filed as physicochemical.
The nature of data set [21]: Toxicity in human HepG2 cells xenografted BALB/c nude mouse assessed as change in tumor weight at 50 to 100 mg/kg for 29 days. The class given is organism-based. The conditions noted are these: in vivo, 696 h, dose 50-100 mg/kg, time 29 day.
Data set [22] concerns HepG2. Description: Antitumor activity against human HepG2 cells xenografted in BALB/c nude mouse assessed as reduction in tumor volume at 50 mg/kg administered for 29 days by caliper method relative to control. It is filed as functional. Also on record: scale not given: the % may be the effect or the level left. The conditions noted are these: time 29 day.
Data set [23] concerns HepG2. Description: Antitumor activity against human HepG2 cells xenografted in BALB/c nude mouse assessed as reduction in tumor volume at 100 mg/kg administered for 29 days by caliper method relative to control. It is filed as functional. Also on record: scale not given: the % may be the effect or the level left. As to conditions: time 29 day.
Data set [24] in a line: Acute toxicity in po dosed Kunming mouse measured for 7 days. The class given is organism-based. As to conditions: in vivo, time 7 day.
The subject of data set [25] is HepG2. Description: Antitumor activity against human HepG2 cells xenografted in BALB/c nude mouse assessed as tumor growth inhibition at 50 mg/kg, iv qod for 14 to 29 days relative to control. It is filed as functional. The conditions noted are these: time 14-29 day, read-out: TGI.
A short description of data set [26]: Toxicity in human MDA-MB-231 cells xenografted BALB/c nude mouse assessed as effect on body weight at 60 mg/kg, ip biw for 14 to 29 days measured every two days during compound dosing. It is filed as organism-based. The conditions noted are these: in vivo, time 14-29 day.
Data set [27] deals with MDA-MB-231. Description: Antitumor activity against human MDA-MB-231 cells xenografted in BALB/c nude mouse assessed as reduction in tumor burden at 60 mg/kg, ip biw for 14 to 29 days relative to control. It is filed as functional. On the set-up: scale not given: the % may be the effect or the level left. As to conditions: time 14-29 day.
For data set [28], the system named is HepG2. As to the kind of experiment: Antitumor activity against human HepG2 cells xenografted in BALB/c nude mouse assessed as tumor growth inhibition at 10 mg/kg, iv administered once per week for 29 days by caliper method relative to control. On the set-up: scale not given: the % may be the effect or the level left. It is filed as functional. As to conditions: time 29 day.

A short description of data set [29]: Toxicity in GFP-labelled human HepG2 cells xenografted BALB/c nude mouse assessed as change in animal weight at 10 mg/kg, iv administered once per week for 29 days. It is filed as organism-based. As to conditions: in vivo, 696 h, time 29 day.
The subject of data set [30] is HepG2. Description: Antitumor activity against GFP-labelled human HepG2 cells xenografted in BALB/c nude mouse assessed as tumor growth inhibition at 10 mg/kg, iv administered once per week for 29 days relative to control. It is filed as functional. The conditions noted are these: 696 h, time 29 day, read-out: TGI.

Broadly, the pIC50 is −log10 of the IC50, conventionally taken in molar units. Broadly, the LD50 is the dose at which mortality reaches 50%. `COc1ccc(N(CCN2CCC(N3CCCC3)CC2)S(=O)(=O)c2ccc3c(c2)c2ccccc2n3C)c(OC)n1`: the pIC50 in data set [1] is 5.47; in data set [8], 5.11; in data set [11] it was 4.68. For the same molecule, the survival at 168 h was 100% in [2], 16.7% in data set [5], 83.3% in data set [6] and 0% in [10]. The values for the Activity in data set [3], in data set [9] and in data set [12] were 1.72 g, 85.64 mm3 and 1237.34 mm3, respectively. The molecule also registered an LD50 at 168 h in data set [4] of 70.7 mg/kg. In addition, the inhibition in vivo at 10 mg/kg in [7] was 51.5%.
As usually defined, the MRT last is the average time that molecules of a dose stay in the body. For `COc1ccc(NS(=O)(=O)c2ccc3c(c2)c2ccc(OP(=O)([O-])[O-])cc2n3C)c(OC)n1.[Na+].[Na+]`, the negative-log IC50 (pIC50) in data set [1] is 7.72; in [8], 7.22; in [11], 7.80. In data set [13], the Vd worked out at 0.24 L/kg. Further, in data set [14], the LD50 at 168 h was 273 mg/kg. Moreover, the half-life in data set [15] is 43.2 min. This molecule yielded an AUClast in data set [16] of 18449 ng·h/mL. The molecule further yielded an MRT last in [17] of 10.2 min. Also, in data set [18], the inhibition in vivo at 25 mg/kg worked out at 71.7%.
For `COc1ccc(N(CCN2CCN(C)CC2)S(=O)(=O)c2ccc3c(c2)c2ccccc2n3C)c(OC)n1`, in data set [19], the TGI entry is “Dose-dependent effect”.
As usually defined, the solubility is the dissolved amount per volume that the medium holds. In the case of `COc1ccc(NS(=O)(=O)c2ccc3c(c2)c2ccccc2n3C)c(OC)n1`, the pIC50 in [1] was 7.02; in data set [11], 6.17. In data set [20], the solubility was less than 1 µg/mL.
Take `COc1ccc(N(CCOP(=O)([O-])[O-])S(=O)(=O)c2ccc3c(c2)c2ccccc2n3C)c(OC)n1.[Na+].[Na+]`: the pIC50 in [1] was 5.95; in data set [8] it was 5.71; in data set [11], 5.97. For the same molecule, the Activity result in data set [21] is “Non-Toxic”; in [22], 54.5%; in [23], 70.1%. Further, the LD50 at 168 h in [24] was 273 mg/kg.
As to `COc1ccc(/C=C\c2cc(OC)c(OC)c(OC)c2)cc1OP(=O)(O)O` [FOSBRETABULIN DISODIUM], the pIC50 in data set [1] was 8.70; in data set [8] it was 7.40; in [11] it was 7.96. In addition, the inhibition in vivo at 50 mg/kg in data set [25] was determined as 45.8%.
As to `CC(=O)O[C@H]1C(=O)[C@@]2(C)[C@H]([C@H](OC(=O)c3ccccc3)[C@]3(O)C[C@H](OC(=O)[C@H](O)[C@@H](NC(=O)c4ccccc4)c4ccccc4)C(C)=C1C3(C)C)[C@]1(OC(C)=O)CO[C@@H]1C[C@@H]2O` [PACLITAXEL], the Activity entry is “Non-Toxic” in data set [26], 36% in [27], 59.6% in [28] and “Non-Toxic” in [29]. Moreover, the inhibition in vivo at 10 mg/kg in data set [30] came to 99.4%.
